Experimental data: patent US7871999B2, “Substituted thiazoles and their use for producing drugs” (Gruenenthal GmbH, priority 2005, dated 2011)

Target: T1, mGluR5 receptor (Sus scrofa, UniProt I3LUI7)
T1 construct: pig brain hemispheres without medulla, cerebellum and pons ... differential centrifugation at 900×g and 40,000×g
Assay: Inhibition of [^3H]-MPEP binding in the mGluR5 receptor binding assay (pig brain homogenate)
Settings: 5 nM [^3H]-MPEP; for inhibition at 1 µM: 1 μM test compound; for inhibition at 10 µM: 10 μM test compound
Procedure: I. Method for Determining the Inhibition of [^3H]-MPEP Binding in the mGluR5 Receptor Binding Assay […]
The batches are then filtered with the assistance of a Brandel Cell Harvester (Brandel, Robotic 9600 model) on Unifilter plates with glass filter mats (Perkin Elmer, order number 6005177) and then washed 3 times with buffer (as above) using 250 μl per sample. The filter plates are then dried for 60 min at 55° C. Then 30 μl of Ultima Gold™ scintillating material (Packard BioScience, order number 6013159) is added per well and after 3 hours the samples are measured using the β counter (Microbeta, Perkin Elmer). Nonspecific binding is determined by the addition of 10 μM MPEP (Tocris, order number 1212).

T1 sequence (I3LUI7 1-1212): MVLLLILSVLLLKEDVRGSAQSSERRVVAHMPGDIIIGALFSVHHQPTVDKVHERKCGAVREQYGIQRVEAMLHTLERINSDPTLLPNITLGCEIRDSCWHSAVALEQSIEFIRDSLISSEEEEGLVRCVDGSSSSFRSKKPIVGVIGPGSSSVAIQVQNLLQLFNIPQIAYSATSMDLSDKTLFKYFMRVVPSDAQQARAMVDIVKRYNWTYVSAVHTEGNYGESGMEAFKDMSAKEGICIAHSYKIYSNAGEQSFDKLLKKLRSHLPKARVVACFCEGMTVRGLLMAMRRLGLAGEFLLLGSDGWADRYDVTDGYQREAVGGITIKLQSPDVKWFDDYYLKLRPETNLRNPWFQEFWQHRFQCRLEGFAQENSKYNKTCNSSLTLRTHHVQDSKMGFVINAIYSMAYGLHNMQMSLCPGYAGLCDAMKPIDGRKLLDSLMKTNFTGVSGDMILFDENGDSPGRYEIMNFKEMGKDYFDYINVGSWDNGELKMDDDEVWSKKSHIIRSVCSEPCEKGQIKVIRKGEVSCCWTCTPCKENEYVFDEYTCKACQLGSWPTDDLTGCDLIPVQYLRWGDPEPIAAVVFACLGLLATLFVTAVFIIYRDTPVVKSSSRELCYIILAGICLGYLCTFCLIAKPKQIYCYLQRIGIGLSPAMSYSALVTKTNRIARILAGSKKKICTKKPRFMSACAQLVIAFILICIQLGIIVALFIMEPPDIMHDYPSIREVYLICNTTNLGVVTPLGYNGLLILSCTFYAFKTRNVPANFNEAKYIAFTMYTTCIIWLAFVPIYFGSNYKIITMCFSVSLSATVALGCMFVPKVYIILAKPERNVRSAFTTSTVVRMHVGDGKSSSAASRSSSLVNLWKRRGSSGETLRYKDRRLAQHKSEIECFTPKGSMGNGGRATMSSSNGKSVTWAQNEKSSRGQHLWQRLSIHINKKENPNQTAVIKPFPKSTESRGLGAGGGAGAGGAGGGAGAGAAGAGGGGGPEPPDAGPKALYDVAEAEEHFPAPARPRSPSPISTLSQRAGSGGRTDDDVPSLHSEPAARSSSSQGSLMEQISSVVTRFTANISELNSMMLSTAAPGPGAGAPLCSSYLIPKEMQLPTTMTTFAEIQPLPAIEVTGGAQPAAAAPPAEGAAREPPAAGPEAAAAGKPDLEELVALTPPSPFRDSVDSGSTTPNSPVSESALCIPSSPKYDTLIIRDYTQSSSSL

| SMILES | inhibition at 1 µM [%] | IC50 [nM] | also measured |
| --- | --- | --- | --- |
| CC(C)(C)c1csc(N2CCC(NC(=O)C#Cc3cccc(F)c3)C2)n1 (stereo not shown) [Example 59, N-(1-(4-tert.-butylthiazol-2-yl)pyrrolidin-3-yl)-3-(3-fluorophenyl)propiolamide] | 34 | – | – |
| CN(CCNC(=O)C#Cc1cccc(Cl)c1)c1ncc(Br)s1 [Example 31, N-(2-((5-Bromothiazol-2-yl)(methyl)amino)ethyl)-3-(3-chlorophenyl)propiolamide] | – | 13 | – |
| Cc1csc(N(C)CCNC(=O)C#Cc2cccc(Cl)c2)n1 [Example 29, N-(2-(methyl-(4-methylthiazol-2-yl)amino)ethyl)-3-(3-chlorophenyl)-propiolamide] | – | 27 | – |
| CC(C)(C)c1csc(N2CCC(NC(=O)C#Cc3ccccc3F)C2)n1 (stereo not shown) [Example 61, N-(1-(4-tert.-butylthiazol-2-yl)pyrrolidin-3-yl)-3-(2-fluorophenyl)propiolamide] | 28 | – | – |
| Cc1cnc(N2CCC(NC(=O)C#Cc3ccccn3)C2)s1 (stereo not shown) [Example 119, N-(1-(5-methylthiazol-2-yl)pyrrolidin-3-yl)-3-(pyridin-2-yl)propiolamide] | – | – | inhibition at 10 µM: 20% |
| CN(C(=O)C#Cc1ccccc1)C1CCCN(c2nccs2)C1 (stereo not shown) [Example 16, N-methyl-N-(1-(thiazol-2-yl)piperidin-3-yl)-3-phenylpropiolamide] | – | 140 | – |
| Cc1cccc(C#CC(=O)NC2CCN(c3nc(C)cs3)C2)c1 (stereo not shown) [Example 72, N-(1-(4-methylthiazol-2-yl)pyrrolidin-3-yl)-3-m-tolylpropiolamide] | 87 | – | – |
| CN(C(=O)C#Cc1ccccc1)C1CN(c2nccs2)C1 [Example 20, N-methyl-N-(1-(thiazol-2-yl)azetidin-3-yl)-3-phenylpropiolamide] | – | 280 | – |
| O=C(C#Cc1ccccc1)N1CCCC(Nc2nccs2)C1 (stereo not shown) [Example 27, 3-(thiazol-2-yl-amino)-1-(3-phenylpropioloyl)piperidine] | – | – | inhibition at 10 µM: 19% |
| O=C(C#Cc1cccc(Cl)c1)NC1CN(c2nccs2)C1 [Example 39, 3-(3-chlorophenyl)-N-(1-(thiazol-2-yl)azetidin-3-yl)-propiolamide] | – | 390 | – |
| COc1cccc(C#CC(=O)NC2CCN(c3nc(C)cs3)C2)c1 (stereo not shown) [Example 46, 3-(3-methoxyphenyl)-N-(1-(4-methylthiazol-2-yl)pyrrolidin-3-yl)propiolamide] | 48 | – | – |
| CN(c1ncc(F)s1)C1CN(C(=O)C#Cc2cccc(Cl)c2)C1 [Example 43, 1-(3-(3-Chlorophenyl)propioloyl)-3-(methyl(5-fluorothiazol-2-yl)amino)azetidine] | – | 74 | – |
| Cc1nc(N2CCC(NC(=O)C#Cc3cccc(Cl)c3)C2)sc1C (stereo not shown) [Example 110, 3-(3-chlorophenyl)-N-(1-(4,5-dimethylthiazol-2-yl)pyrrolidin-3-yl)propiolamide] | – | – | inhibition at 10 µM: 63% |
| O=C(C#Cc1ccccc1)NC1CCN(c2nccs2)C1 (stereo not shown) [Example 1, 3-Phenyl-N-(1-(thiazol-2-yl)pyrrolidin-3-yl)propiolamide] | – | – | inhibition at 10 µM: 66% |
| CCN(CCNC(=O)C#Cc1cccc(Cl)c1)c1nccs1 [Example 41, 3-(3-Chlorophenyl)-N-(2-(ethyl(thiazol-2-yl)amino)ethyl)propiolamide] | – | 4.1 | – |
| Cc1ccc(C#CC(=O)NC2CCN(c3ncc(C)s3)C2)cc1 (stereo not shown) [Example 73, N-(1-(5-methylthiazol-2-yl)pyrrolidin-3-yl)-3-p-tolylpropiolamide] | 18 | – | – |
| Cc1csc(N2CCC(NC(=O)C#Cc3ccccc3F)C2)n1 (stereo not shown) [Example 70, 3-(2-fluorophenyl)-N-(1-(4-methylthiazol-2-yl)pyrrolidin-3-yl)propiolamide] | 50 | – | – |
| O=C(C#Cc1ccccc1)N1CCC(Nc2nccs2)C1 (stereo not shown) [Example 11, 3-(Thiazol-2-yl-amino)-1-(3-phenylpropioloyl)pyrrolidine] | – | 2180 | – |
| Cc1csc(N2CCC(NC(=O)C#Cc3cccc(Cl)c3)C2)n1 (stereo not shown) [Example 105, 3-(3-chlorophenyl)-N-(1-(4-methylthiazol-2-yl)pyrrolidin-3-yl)propiolamide] | – | – | inhibition at 10 µM: 83% |
| Cc1csc(N2CCC(NC(=O)C#Cc3ccccc3)C2)n1 (stereo not shown) [Example 45, N-(1-(4-methylthiazol-2-yl)pyrrolidin-3-yl)-3-phenylpropiolamide] | 59 | – | – |
| CN(CCNC(=O)C#Cc1cccc(Cl)c1)c1nc2ccccc2s1 [Example 24, N-(2-(benzo[d]thiazol-2-yl(methyl)amino)ethyl)-3-(3-chlorophenyl)-propiolamide] | – | 2780 | – |
| CCOC(=O)c1cnc(N(C)CCNC(=O)C#Cc2cccc(Cl)c2)s1 [Example 25, N-(2-(methyl-(5-ethoxycarbonylthiazol-2-yl)amino)ethyl)-3-(3-chlorophenyl)-propiolamide] | – | 150 | – |
| O=C(C#Cc1ccccc1)NC1CCCCC1Nc1nccs1 (stereo not shown) [Example 6, 3-phenyl-N-(2-(thiazol-2-ylamino)cyclohexyl)propiolamide] | – | – | inhibition at 10 µM: 57% |
| CN(c1nccs1)C1CCN(C(=O)C#Cc2ccccc2)C1 (stereo not shown) [Example 22, 3-(Methyl(thiazol-2-yl)amino)-1-(3-phenylpropioloyl)pyrrolidine] | – | 350 | – |
| Cc1csc(N2CCC(NC(=O)C#Cc3cccs3)C2)n1 (stereo not shown) [Example 106, N-(1-(4-methylthiazol-2-yl)pyrrolidin-3-yl)-3-(thiophen-2-yl)propiolamide] | – | – | inhibition at 10 µM: 38% |
| CN(CC(=O)N(C)c1nccs1)C(=O)C#Cc1ccccc1 [Example 14, N-Methyl-N-(2-(methyl(thiazol-2-yl)amino)-2-oxoethyl)-3-phenylpropiolamide] | – | 4970 | – |
| CN(C(=O)C#Cc1cccc(Cl)c1)C1CCCN(c2nccs2)C1 (stereo not shown) [Example 36, 3-(3-Chlorophenyl)-N-methyl-N-(1-(thiazol-2-yl)piperidin-3-yl)propiolamide] | – | 22 | – |

Further lines, with some results ahead:

| inhibition at 1 µM [%] | IC50 [nM] | SMILES | also measured |
| --- | --- | --- | --- |
| 89 | – | Cc1cccc(C#CC(=O)NC2CCN(c3ncc(C)s3)C2)c1 (stereo not shown) [Example 74, N-(1-(5-methylthiazol-2-yl)pyrrolidin-3-yl)-3-m-tolylpropiolamide] | – |
| 38 | – | CC(C)(C)c1csc(N2CCC(NC(=O)C#Cc3cccc(Cl)c3)C2)n1 (stereo not shown) [Example 100, N-(1-(4-tert.-butylthiazol-2-yl)pyrrolidin-3-yl)-3-(3-chlorophenyl)propiolamide] | – |
| 26 | – | COc1cccc(C#CC(=O)NC2CCN(c3ncc(C)s3)C2)c1 (stereo not shown) [Example 78, 3-(3-methoxyphenyl)-N-(1-(5-methylthiazol-2-yl)pyrrolidin-3-yl)propiolamide] | – |
| 46 | – | Cc1cccc(C#CC(=O)NC2CCN(c3nc(C(C)(C)C)cs3)C2)c1 (stereo not shown) [Example 99, N-(1-(4-tert.-butylthiazol-2-yl)pyrrolidin-3-yl)-3-m-tolylpropiolamide] | – |
| 41 | – | Cc1nc(N2CCC(NC(=O)C#Cc3cccc(C(F)(F)F)c3)C2)sc1C (stereo not shown) [Example 85, N-(1-(4,5-dimethylthiazol-2-yl)pyrrolidin-3-yl)-3-(3-(trifluoromethyl)phenyl)-propiolamide] | – |
| 21 | – | Cc1cnc(N2CCC(NC(=O)C#Cc3ccccc3F)C2)s1 (stereo not shown) [Example 77, 3-(2-fluorophenyl)-N-(1-(5-methylthiazol-2-yl)pyrrolidin-3-yl)propiolamide] | – |
| 34 | – | COc1cccc(C#CC(=O)NC2CCN(c3nc(C)c(C)s3)C2)c1 (stereo not shown) [Example 90, N-(1-(4,5-dimethylthiazol-2-yl)pyrrolidin-3-yl)-3-(3-methoxyphenyl)propiolamide] | – |
